Test results: ChEMBL document CHEMBL1136001, “Azapeptides structurally based upon inhibitory sites of cystatins as potent and selective inhibitors of cysteine proteases” (J Med Chem, 2002)
pKi: −log10 of the molar value. Active and inactive are the calls of the source. The calls are words filed in the database; no cut-off is given here. Non-standard residues stand in square brackets, D forms with d. Residues, ends and D or L forms follow the SMILES beside them. *: point of attachment. 1Nal = N[C@@H](Cc1cccc2ccccc12)C(=O)O; Cbz = O=C(OCc1ccccc1)*; NHBn = c1ccc(CN*)cc1; OBn = c1ccc(CO*)cc1; azaGly = NNC(=O)O

Columns and labels:
Papain (Carica papaya) = biological target: T1, Papain (Carica papaya) (UniProt P00784); experiment: Evaluated for inhibitory activity against papain; No inhibition
T1 sequence (whole entry): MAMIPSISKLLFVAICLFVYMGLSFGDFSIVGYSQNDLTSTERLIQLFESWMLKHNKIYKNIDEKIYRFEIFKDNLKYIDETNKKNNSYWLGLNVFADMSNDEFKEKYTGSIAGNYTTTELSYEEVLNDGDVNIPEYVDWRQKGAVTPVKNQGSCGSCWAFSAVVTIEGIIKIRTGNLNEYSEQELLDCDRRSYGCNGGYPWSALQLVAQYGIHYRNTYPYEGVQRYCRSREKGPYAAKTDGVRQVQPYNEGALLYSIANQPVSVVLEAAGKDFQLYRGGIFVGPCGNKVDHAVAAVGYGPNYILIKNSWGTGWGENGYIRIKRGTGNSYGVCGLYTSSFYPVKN

Papain = biological target: T2, Papain (Carica papaya, UniProt P00784); experiment: In vitro inhibition of papain.
T2 sequence (P00784 whole entry): T1 sequence (whole entry)

Cathepsin B = Cathepsin B (Homo sapiens, UniProt P07858); experiment: Inhibition of Human Cathepsin B
Cathepsin K = biological target: T3, Cathepsin K (Homo sapiens, UniProt P43235); experiment: Inhibition of Human Cathepsin K
T3 sequence (P43235 whole entry): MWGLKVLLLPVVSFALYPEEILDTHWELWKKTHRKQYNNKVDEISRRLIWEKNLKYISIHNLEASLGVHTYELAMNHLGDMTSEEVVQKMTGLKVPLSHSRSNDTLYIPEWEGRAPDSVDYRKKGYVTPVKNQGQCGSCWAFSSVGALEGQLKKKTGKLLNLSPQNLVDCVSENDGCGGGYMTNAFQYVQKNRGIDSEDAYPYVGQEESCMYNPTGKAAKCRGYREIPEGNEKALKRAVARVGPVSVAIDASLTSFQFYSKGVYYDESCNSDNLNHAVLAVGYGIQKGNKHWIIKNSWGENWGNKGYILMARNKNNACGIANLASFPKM

SMILES: CC(C)C(NC(=O)NNC(=O)OC(C)(C)C)C(=O)OCc1ccccc1 (stereo not given)
- NI (Papain (Carica papaya)): inactive

SMILES: COC(=O)[C@@H](NC(=O)NNC(=O)[C@H](Cc1ccccc1)NC(C)=O)C(C)C
- pKi (Papain): 7.21

SMILES: CC(C)C[C@H](NC(=O)OCc1ccccc1)C(=O)N[C@@H](Cc1ccccc1)C(=O)NNC(=O)N[C@H](C(=O)OCc1ccccc1)C(C)C (Cbz-LF[azaGly]V-OBn)
- NI (Papain (Carica papaya)): inactive

SMILES: CC(C)C[C@H](NC(=O)[C@H](CCCN=C(N)N)NC(=O)OCc1ccccc1)C(=O)N[C@@H](Cc1ccccc1)C(=O)NNC(=O)N[C@H](C(=O)OCc1ccccc1)C(C)C (Cbz-RLF[azaGly]V-OBn)
- NI (Papain (Carica papaya)): inactive

SMILES: CC(=O)N[C@@H](Cc1ccccc1)C(=O)NNC(=O)N[C@H](C(=O)NCc1ccccc1)C(C)C
- pKi (Papain): 7.52

SMILES: CCCCOC(=O)[C@@H](NC(=O)NNC(=O)[C@H](Cc1ccccc1)NC(C)=O)C(C)C
- pKi (Papain): 7.23

SMILES: CC[C@H](C)[C@H](NC(=O)NNC(=O)[C@H](Cc1ccc(OC)cc1)NC(=O)[C@H](CC(C)C)NC(=O)[C@H](C)NC(=O)OCc1ccccc1)C(=O)N[C@H](C(=O)OC)C(C)C (Cbz-ALY(Me)[azaGly]IV-OMe)
- pKi (Cathepsin B): 8.85
- pKi (Papain): 9.55
- pKi (Cathepsin K): 8.07

SMILES: CC(C)C[C@H](NC(=O)[C@H](CCCNC(=N)N)NC(=O)OCc1ccccc1)C(=O)N[C@H](C(=O)NNC(=O)N[C@H](C(=O)N[C@@H](C)C(N)=O)C(C)C)C(C)C (HELM PEPTIDE1{[O=C(OCc1ccccc1)[*:2]].R.L.V.[O=C(NN[*:1])[*:2]].V.A.[am]}$$$$V2.0)
- pKi (Cathepsin B): 9.92
- pKi (Papain): 9.25
- pKi (Cathepsin K): 8.67

SMILES: CC[C@H](C)[C@H](NC(=O)NNC(=O)[C@@H](NC(=O)[C@H](CC(C)C)NC(=O)[C@H](CCCN=C(N)N)NC(=O)OCc1ccccc1)C(C)C)C(=O)N[C@H](C(=O)N[C@@H](Cc1c[nH]c2ccccc12)C(N)=O)C(C)C (HELM PEPTIDE1{[O=C(OCc1ccccc1)[*:2]].R.L.V.[O=C(NN[*:1])[*:2]].I.V.W.[am]}$$$$V2.0)
- pKi (Cathepsin B): 7.89
- pKi (Papain): 7.77
- pKi (Cathepsin K): 7.14

SMILES: CC[C@H](C)[C@H](NC(=O)NNC(=O)[C@H](Cc1cnc[nH]1)NC(=O)[C@H](CC(C)C)NC(=O)[C@H](C)NC(=O)OCc1ccccc1)C(=O)N[C@H](C(=O)OC)C(C)C (Cbz-ALH[azaGly]IV-OMe)
- pKi (Cathepsin B): 10.52
- pKi (Papain): 9.24
- pKi (Cathepsin K): 9.07

SMILES: CC[C@H](C)[C@H](NC(=O)NNC(=O)[C@@H](NC(=O)[C@H](CC(C)C)NC(=O)[C@H](C)NC(=O)OCc1ccccc1)[C@@H](C)CC)C(=O)N[C@H](C(=O)NCc1ccccc1)C(C)C (Cbz-ALI[azaGly]IV-NHBn)
- pKi (Cathepsin B): 9.60
- pKi (Papain): 8.87
- pKi (Cathepsin K): 8.61

SMILES: CC(C)C[C@H](NC(=O)[C@H](CCCNC(=N)N)NC(=O)OCc1ccccc1)C(=O)N[C@H](C(=O)NNC(=O)N[C@@H](C)C(=O)NCC(N)=O)C(C)C (HELM PEPTIDE1{[O=C(OCc1ccccc1)[*:2]].R.L.V.[O=C(NN[*:1])[*:2]].A.G.[am]}$$$$V2.0)
- pKi (Cathepsin B): 8.14
- pKi (Papain): 9.11
- pKi (Cathepsin K): 8.17

SMILES: CC(C)C[C@H](NC(=O)[C@H](CCCNC(=N)N)NC(=O)OCc1ccccc1)C(=O)N[C@H](C(=O)NNC(=O)N[C@@H](Cc1c[nH]c2ccccc12)C(=O)N[C@H](C(=O)N[C@@H](C)C(N)=O)C(C)C)C(C)C (HELM PEPTIDE1{[O=C(OCc1ccccc1)[*:2]].R.L.V.[O=C(NN[*:1])[*:2]].W.V.A.[am]}$$$$V2.0)
- pKi (Cathepsin B): 7.37
- pKi (Papain): 7.00
- pKi (Cathepsin K): 7.00

SMILES: CC(=O)N[C@@H](Cc1ccccc1)C(=O)NNC(=O)N[C@H](C(=O)OCc1ccccc1)C(C)C
- pKi (Papain): 7.68

SMILES: CNC(=O)[C@@H](NC(=O)NNC(=O)[C@H](Cc1ccccc1)NC(C)=O)C(C)C
- pKi (Papain): 7.49

SMILES: CCOC(=O)[C@@H](NC(=O)NNC(=O)[C@H](Cc1ccccc1)NC(C)=O)C(C)C
- pKi (Papain): 7.70

SMILES: CCOC(=O)NNC(=O)[C@@H](NC(=O)[C@H](CC(C)C)NC(=O)OC(C)(C)C)C(C)C
- pKi (Papain): 7.62
- pKi (Cathepsin K): 7.21

SMILES: CC[C@H](C)[C@H](NC(=O)NNC(=O)[C@@H](NC(=O)[C@H](CC(C)C)NC(=O)[C@H](CCCN=C(N)N)NC(=O)OCc1ccccc1)C(C)C)C(=O)N[C@H](C(=O)OC)C(C)C (Cbz-RLV[azaGly]IV-OMe)
- pKi (Cathepsin B): 10.06
- pKi (Papain): 9.11
- pKi (Cathepsin K): 7.68

SMILES: CC(C)C[C@H](N)C(=O)N[C@H](C(=O)NNC(=O)N[C@H](C(=O)OCc1ccccc1)C(C)C)C(C)C (HELM PEPTIDE1{L.V.[O=C(NN[*:1])[*:2]].V.[c1ccc(CO[*:1])cc1]}$$$$V2.0)
- NI (Papain (Carica papaya)): inactive

SMILES: CCCCNC(=O)[C@@H](NC(=O)NNC(=O)[C@H](Cc1ccccc1)NC(C)=O)C(C)C
- pKi (Papain): 7.55

SMILES: CC[C@H](C)[C@H](NC(=O)NNC(=O)[C@@H](NC(=O)[C@H](CC(C)C)NC(=O)[C@H](C)NC(=O)OCc1ccccc1)[C@@H](C)CC)C(=O)N[C@H](C(=O)OC)C(C)C (Cbz-ALI[azaGly]IV-OMe)
- pKi (Cathepsin B): 9.52
- pKi (Papain): 9.02
- pKi (Cathepsin K): 8.67

SMILES: CC[C@H](C)[C@H](NC(=O)NNC(=O)[C@H](Cc1ccccc1)NC(=O)[C@H](CC(C)C)NC(=O)[C@H](C)NC(=O)OCc1ccccc1)C(=O)N[C@H](C(=O)OC)C(C)C (Cbz-ALF[azaGly]IV-OMe)
- pKi (Cathepsin B): 9.89
- pKi (Papain): 9.92
- pKi (Cathepsin K): 9.74

SMILES: CC(=O)N[C@@H](Cc1ccccc1)C(=O)NNC(=O)N[C@H](C(=O)O)C(C)C
- NA (Papain (Carica papaya)): inactive

SMILES: CC(C)C[C@H](NC(=O)OCc1ccccc1)C(=O)N[C@H](C(=O)NNC(=O)N[C@H](C(=O)OCc1ccccc1)C(C)C)C(C)C (Cbz-LV[azaGly]V-OBn)
- pKi (Cathepsin B): 7.40
- pKi (Papain): 8.17
- pKi (Cathepsin K): 7.47

SMILES: CC[C@H](C)[C@H](NC(=O)NNC(=O)[C@H](Cc1cccc2ccccc12)NC(=O)[C@H](CC(C)C)NC(=O)[C@H](C)NC(=O)OCc1ccccc1)C(=O)N[C@H](C(=O)OC)C(C)C (Cbz-AL[1Nal][azaGly]IV-OMe)
- pKi (Cathepsin B): 8.80
- pKi (Papain): 10.00
- pKi (Cathepsin K): 8.24
